Assay results reported in PubChem BioAssay (NCI).
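96-well plates; 48 h exposure; 5 concentrations. Endpoints by linear interpolation between flanking doses. Not reached: highest tested concentration assigned. Here, GI50 denotes the concentration required for 50% inhibition of growth. TGI: total growth inhibition.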

Assays:
Test in all cases: NCI-60 cell line screen, 48 h
RXF 393 renal = system: RXF 393 renal
UO-31 renal = system: UO-31 renal
MALME-3M melanoma = system: MALME-3M melanoma
UACC-257 melanoma = system: UACC-257 melanoma
SN12C renal = system: SN12C renal
HCT-15 colon = system: HCT-15 colon
CAKI-1 renal = system: CAKI-1 renal
786-0 renal = system: 786-0 renal
RPMI-8226 leukemia = system: RPMI-8226 leukemia
NCI-H226 lung = system: NCI-H226 lung
OVCAR-8 ovarian = system: OVCAR-8 ovarian
OVCAR-5 ovarian = system: OVCAR-5 ovarian
PC-3 prostate = system: PC-3 prostate
SF-295 CNS = system: SF-295 CNS
SK-MEL-28 melanoma = system: SK-MEL-28 melanoma
NCI-H460 lung = system: NCI-H460 lung
NCI-H522 lung = system: NCI-H522 lung
IGROV1 ovarian = system: IGROV1 ovarian
UACC-62 melanoma = system: UACC-62 melanoma
COLO 205 colon = system: COLO 205 colon
SNB-75 CNS = system: SNB-75 CNS
K-562 leukemia = system: K-562 leukemia
SF-268 CNS = system: SF-268 CNS
MOLT-4 leukemia = system: MOLT-4 leukemia
HOP-62 NSCLC = system: HOP-62 NSCLC
U251 CNS = system: U251 CNS

O=C1c2ccccc2-c2c1c1ccccc1c(=O)n2CCN1CCNCC1
GI50 (RXF 393 renal): 4.31 µM
TGI (RXF 393 renal): 19.6 µM
GI50 (UO-31 renal): 2.24 µM
TGI (UO-31 renal): 13 µM
GI50 (MALME-3M melanoma): 2.53 µM
TGI (MALME-3M melanoma): 6.79 µM
GI50 (UACC-257 melanoma): 4.98 µM
TGI (UACC-257 melanoma): 16.9 µM
GI50 (SN12C renal): 2.21 µM
TGI (SN12C renal): 18.1 µM
GI50 (HCT-15 colon): 0.935 µM
TGI (HCT-15 colon): 11.3 µM
GI50 (CAKI-1 renal): 0.465 µM
TGI (CAKI-1 renal): 2.9 µM
GI50 (786-0 renal): 2.88 µM
TGI (786-0 renal): 12.4 µM
GI50 (RPMI-8226 leukemia): 1.63 µM
TGI (RPMI-8226 leukemia): 4.43 µM
GI50 (NCI-H226 lung): 1.06 µM
TGI (NCI-H226 lung): 3.15 µM
GI50 (OVCAR-8 ovarian): 0.968 µM
TGI (OVCAR-8 ovarian): 3.59 µM
GI50 (OVCAR-5 ovarian): 1.55 µM
TGI (OVCAR-5 ovarian): 6.92 µM
GI50 (PC-3 prostate): 4.02 µM
TGI (PC-3 prostate): 17.8 µM
GI50 (SF-295 CNS): 0.552 µM
TGI (SF-295 CNS): 3.05 µM
GI50 (SK-MEL-28 melanoma): 5.82 µM
TGI (SK-MEL-28 melanoma): 27.6 µM
GI50 (NCI-H460 lung): 0.668 µM
TGI (NCI-H460 lung): > 100 µM
GI50 (NCI-H522 lung): 3.06 µM
TGI (NCI-H522 lung): 19.3 µM
GI50 (IGROV1 ovarian): 3.61 µM
TGI (IGROV1 ovarian): > 100 µM
GI50 (UACC-62 melanoma): 1.37 µM
TGI (UACC-62 melanoma): 3.15 µM
GI50 (COLO 205 colon): 5.4 µM
TGI (COLO 205 colon): 18.2 µM
GI50 (SNB-75 CNS): 6.26 µM
TGI (SNB-75 CNS): 23.2 µM
GI50 (K-562 leukemia): 0.902 µM
TGI (K-562 leukemia): 5.05 µM
GI50 (SF-268 CNS): 5.83 µM
TGI (SF-268 CNS): 26.4 µM
GI50 (MOLT-4 leukemia): 0.253 µM
TGI (MOLT-4 leukemia): 0.688 µM
GI50 (HOP-62 NSCLC): 1.92 µM
TGI (HOP-62 NSCLC): 6.27 µM
GI50 (U251 CNS): 1.08 µM
